Test results taken from patent US10669272B2, “Substituted naphthyridinone compounds useful as T cell activators” (BRISTOL-MYERS SQUIBB COMPANY, priority 2018, dated 2020).
Like-named read-outs stand apart in the source and are kept apart here. Values belong to the molecule of their own block, whether it stands above or below them.

What was measured:
Human venous whole blood = assay: Human whole blood IFN-γ assay; type: cell-based; conditions: human whole blood, anti-CD3 plus anti-CD28, 24 hours, 3 μM reference compound = 100% activation, read-out: INFg Whole Blood Normalized Agonist EC50;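 note: blood from healthy donors exposed to compound for 1 h before stimulation with anti-CD3 and anti-CD28 at 1 µg/mL each, IFN-γ quantified in supernatant by AlphaLISA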
human DGKζ = molecular target: T1, human DGKζ (Homo sapiens, UniProt Q13574); assay: DGKζ LIPGLO assay (extruded liposome substrate), in vitro DGK inhibition; type: biochemical; conditions: DGKζ liposome (LIPGLO) assay; read-out: DGKz LIPGLO IC50
T1 construct: TVMV protease cleavage site (C); Hexa-His (C); made in house; host or cells: Sf9 insect cells (baculovirus, Bac-to-Bac)
T1 sequence (Q13574 with tags, fused parts or gaps isoform Q13574-4): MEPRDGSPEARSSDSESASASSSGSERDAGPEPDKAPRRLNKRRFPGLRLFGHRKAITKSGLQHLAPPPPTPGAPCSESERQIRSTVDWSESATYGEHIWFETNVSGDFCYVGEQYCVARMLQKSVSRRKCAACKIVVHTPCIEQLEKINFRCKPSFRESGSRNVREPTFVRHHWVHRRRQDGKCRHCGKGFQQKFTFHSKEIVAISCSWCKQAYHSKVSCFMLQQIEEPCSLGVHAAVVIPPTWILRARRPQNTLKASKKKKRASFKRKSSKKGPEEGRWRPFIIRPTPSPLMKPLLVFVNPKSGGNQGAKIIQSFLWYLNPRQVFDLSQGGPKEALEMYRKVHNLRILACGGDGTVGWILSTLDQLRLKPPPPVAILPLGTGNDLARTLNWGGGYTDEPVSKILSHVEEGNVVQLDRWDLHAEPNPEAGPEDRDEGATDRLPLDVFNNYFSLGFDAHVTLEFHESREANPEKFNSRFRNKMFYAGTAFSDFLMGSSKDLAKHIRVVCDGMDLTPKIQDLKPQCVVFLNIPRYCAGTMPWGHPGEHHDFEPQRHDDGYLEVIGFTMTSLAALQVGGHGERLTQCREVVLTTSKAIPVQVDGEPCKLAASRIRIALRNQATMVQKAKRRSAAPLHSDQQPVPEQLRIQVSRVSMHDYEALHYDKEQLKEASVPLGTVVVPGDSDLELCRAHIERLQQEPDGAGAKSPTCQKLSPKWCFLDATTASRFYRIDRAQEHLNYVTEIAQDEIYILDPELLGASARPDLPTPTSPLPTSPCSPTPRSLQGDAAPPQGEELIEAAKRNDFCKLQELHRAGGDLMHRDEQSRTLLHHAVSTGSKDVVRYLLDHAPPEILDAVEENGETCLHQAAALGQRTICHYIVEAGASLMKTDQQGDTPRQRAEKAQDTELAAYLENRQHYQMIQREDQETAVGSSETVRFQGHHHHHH

human DGKα = molecular target: T2, human DGKα (Homo sapiens, UniProt P23743); assay: DGKα LIPGLO assay (extruded liposome substrate), in vitro DGK inhibition; type: biochemical; conditions: DGKα liposome (LIPGLO) assay; read-out: DGKa LIPGLO IC50
T2 construct: TVMV protease cleavage site (C); Hexa-His (C); made in house; host or cells: Sf9 insect cells (baculovirus, Bac-to-Bac)
T2 sequence (P23743 with tags, fused parts or gaps): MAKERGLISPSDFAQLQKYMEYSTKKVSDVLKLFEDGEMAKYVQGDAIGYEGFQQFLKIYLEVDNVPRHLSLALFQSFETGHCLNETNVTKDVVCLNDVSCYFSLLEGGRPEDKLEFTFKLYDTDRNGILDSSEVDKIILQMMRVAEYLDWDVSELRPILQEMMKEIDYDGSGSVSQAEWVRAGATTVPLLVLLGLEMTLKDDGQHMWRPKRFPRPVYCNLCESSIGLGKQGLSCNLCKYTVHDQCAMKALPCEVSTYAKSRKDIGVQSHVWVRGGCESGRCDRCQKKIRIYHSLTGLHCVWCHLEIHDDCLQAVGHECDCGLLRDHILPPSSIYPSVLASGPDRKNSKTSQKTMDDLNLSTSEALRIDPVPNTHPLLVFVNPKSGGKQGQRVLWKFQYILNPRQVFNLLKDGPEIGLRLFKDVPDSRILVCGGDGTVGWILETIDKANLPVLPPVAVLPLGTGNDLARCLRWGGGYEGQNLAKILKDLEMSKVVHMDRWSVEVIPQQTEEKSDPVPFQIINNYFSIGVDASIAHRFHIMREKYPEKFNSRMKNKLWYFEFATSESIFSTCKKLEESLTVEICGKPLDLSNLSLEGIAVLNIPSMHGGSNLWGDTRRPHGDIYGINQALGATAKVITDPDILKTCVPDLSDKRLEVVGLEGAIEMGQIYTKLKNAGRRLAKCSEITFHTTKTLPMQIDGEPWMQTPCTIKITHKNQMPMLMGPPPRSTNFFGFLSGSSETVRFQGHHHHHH

Structure (SMILES): CC(c1ccc(OC(F)(F)F)cc1)N1C[C@H](C)N(c2c(C#N)c(=O)n(C)c3ccc(C#N)nc23)C[C@H]1C (single isomer, unassigned) [Example 801]
- EC50 (Human venous whole blood; Homo sapiens, 24 h): 13 µM
- IC50 (human DGKζ): 2.2 µM
- IC50 (human DGKα): 0.068 µM

Structure (SMILES): CC(c1ccc(OC(F)(F)F)cc1)N1C[C@H](C)N(c2c(C#N)c(=O)n(C)c3ccc(C#N)nc23)C[C@H]1C (single isomer, unassigned) [Example 802]
- EC50 (Human venous whole blood): 10 µM
- IC50 (human DGKζ): 24 µM
- IC50 (human DGKα): 1.3 µM

Structure (SMILES): Cc1cc(C(C)N2C[C@H](C)N(c3c(C#N)c(=O)n(C)c4ccc(C#N)nc34)C[C@H]2C)no1 (single isomer, unassigned) [Example 803]
- EC50 (Human venous whole blood; Homo sapiens, 24 h): 20 µM
- IC50 (human DGKζ): 7 µM
- IC50 (human DGKα): 2 µM

Structure (SMILES): Cc1cc(C(C)N2C[C@H](C)N(c3c(C#N)c(=O)n(C)c4ccc(C#N)nc34)C[C@H]2C)no1 (single isomer, unassigned) [Example 804]
- EC50 (Human venous whole blood): 20 µM
- IC50 (human DGKζ): 32 µM
- IC50 (human DGKα): 6.9 µM

Structure (SMILES): CCc1ccc(C(c2ccc(F)cc2)N2C[C@H](C)N(c3c(C#N)c(=O)n(C)c4ccc(C#N)nc34)C[C@H]2C)cc1 (single isomer, unassigned) [Example 811]
- EC50 (Human venous whole blood; Homo sapiens, 24 h): 2.1 µM
- IC50 (human DGKζ): 2.6 µM
- IC50 (human DGKα): 9.3 µM

Structure (SMILES): CCc1ccc(C(c2ccc(F)cc2)N2C[C@H](C)N(c3c(C#N)c(=O)n(C)c4ccc(C#N)nc34)C[C@H]2C)cc1 (single isomer, unassigned) [Example 812]
- EC50 (Human venous whole blood): 2.8 µM
- IC50 (human DGKζ): 0.51 µM
- IC50 (human DGKα): 17 µM

Structure (SMILES): C[C@@H]1CN(c2c(C#N)c(=O)n(C)c3ccc(C#N)nc23)[C@@H](C)CN1C(c1ccccc1)c1cc(F)cc(F)c1 (single isomer, unassigned) [Example 813]
- EC50 (Human venous whole blood): 20 µM
- IC50 (human DGKζ): 3.7 µM
- IC50 (human DGKα): 85 µM

Structure (SMILES): C[C@@H]1CN(c2c(C#N)c(=O)n(C)c3ccc(C#N)nc23)[C@@H](C)CN1C(c1ccccc1)c1cc(F)cc(F)c1 (single isomer, unassigned) [Example 814]
- EC50 (Human venous whole blood): 5.5 µM
- IC50 (human DGKζ): 1 µM
- IC50 (human DGKα): 35 µM

Structure (SMILES): C[C@@H]1CN(c2c(C#N)c(=O)n(C)c3ccc(C#N)nc23)[C@@H](C)CN1C(c1ccc(F)cc1)c1ccc(C#N)cc1 (single isomer, unassigned) [Example 823]
- EC50 (Human venous whole blood): 7.6 µM
- IC50 (human DGKζ): 40 µM
- IC50 (human DGKα): 18 µM

The next lines start with results.

- IC50 (human DGKζ): 2.3 µM
- IC50 (human DGKα): 140 µM
Structure (SMILES): CCc1ccccc1C(c1ccc(F)cc1)N1C[C@H](C)N(c2c(C#N)c(=O)n(C)c3ccc(C#N)nc23)C[C@H]1C (single isomer, unassigned) [Example 809]
- EC50 (Human venous whole blood; Homo sapiens, 24 h): 20 µM

- IC50 (human DGKζ): 23 µM
- IC50 (human DGKα): 240 µM
Structure (SMILES): CCc1ccccc1C(c1ccc(F)cc1)N1C[C@H](C)N(c2c(C#N)c(=O)n(C)c3ccc(C#N)nc23)C[C@H]1C (single isomer, unassigned) [Example 810]
- EC50 (Human venous whole blood): 20 µM

- IC50 (human DGKζ): 2.9 µM
- IC50 (human DGKα): 2.3 µM
Structure (SMILES): C[C@@H]1CN(c2c(C#N)c(=O)n(C)c3ccc(C#N)nc23)[C@@H](C)CN1C(c1ccc(Cl)cc1)c1ncccc1F (single isomer, unassigned) [Example 819]
- EC50 (Human venous whole blood; Homo sapiens, 24 h): 2.2 µM

- IC50 (human DGKζ): 2 µM
- IC50 (human DGKα): 0.92 µM
Structure (SMILES): C[C@@H]1CN(c2c(C#N)c(=O)n(C)c3ccc(C#N)nc23)[C@@H](C)CN1C(c1ccc(F)cc1)c1ncccc1F (single isomer, unassigned) [Example 820]
- EC50 (Human venous whole blood; Homo sapiens, 24 h): 2.2 µM

- IC50 (human DGKζ): 6.5 µM
- IC50 (human DGKα): 2.7 µM
Structure (SMILES): C[C@@H]1CN(c2c(C#N)c(=O)n(C)c3ccc(C#N)nc23)[C@@H](C)CN1C(c1ccc(F)cc1)c1ncccc1F (single isomer, unassigned) [Example 821]
- EC50 (Human venous whole blood): 3.4 µM

- IC50 (human DGKζ): 13 µM
- IC50 (human DGKα): 2.7 µM
Structure (SMILES): C[C@@H]1CN(c2c(C#N)c(=O)n(C)c3ccc(C#N)nc23)[C@@H](C)CN1C(c1ccc(Cl)cc1)c1ncccc1F (single isomer, unassigned) [Example 822]
- EC50 (Human venous whole blood): 3.2 µM

- IC50 (human DGKζ): 11 µM
- IC50 (human DGKα): 16 µM
Structure (SMILES): C[C@@H]1CN(c2c(C#N)c(=O)n(C)c3ccc(C#N)nc23)[C@@H](C)CN1C(c1ccc(F)cc1)c1ccc(C#N)cc1 (single isomer, unassigned) [Example 824]
- EC50 (Human venous whole blood): 3.2 µM
